Laboratory results as given in ChEMBL document CHEMBL4330111 (Bioorg Med Chem Lett, 2019).

Experiments:
[1] = system: Vero; assay: Cytotoxicity against African green monkey Vero cells after 48 hrs by MTT assay; type: cell-based; details: chlorocebus sabaeus
[2] = system: Mycobacterium tuberculosis; assay: microbe, parasite or virus in culture; details: H37Rv, 144 h
Description: Antitubercular activity against Mycobacterium tuberculosis H37Rv after 6 days by alamar blue reagent based assay

[3] = Half life in mouse liver microsomes; type: ADME, Microsome
[4] = Kinetic solubility of the compound in pH 7.4 phosphate buffered saline; type: physicochemical; details: for Kinetic_solubility: buffer; for solubility kinetic: phosphate buffered saline, read-out: Kinetic_solubility
[5] = Cmax in CD-1 mouse at 25 mg/kg, po administered as single dose by LC-MS/MS analysis; type: ADME, organism-based; design: dose 25 mg/kg, route oral; details: in vivo
[6] = AUC (0 to 5 hrs) in CD-1 mouse at 25 mg/kg, po administered as single dose by LC-MS/MS analysis; type: ADME, organism-based; design: dose 25 mg/kg, route oral; details: in vivo
[7] = Intrinsic clearance in mouse liver microsomes assessed per mg protein; type: ADME, Microsome
[8] = system: Acinetobacter baumannii; assay: Antibacterial activity against Acinetobacter baumannii ATCC 19606; type: functional; details: ATCC 19606 = CIP 70.34 = JCM 6841
[9] = Antibacterial activity against Enterobacter cloacae ATCC 13047; type: functional, Enterobacter cloacae subsp. cloacae
[10] = system: Enterococcus faecium; assay: Antibacterial activity against Enterococcus faecium NCTC 7171; type: functional
[11] = system: Klebsiella pneumoniae; assay: Antibacterial activity against Klebsiella pneumoniae BAA 2146; type: functional; details: ATCC BAA-2146
[12] = system: Pseudomonas aeruginosa; assay: Antibacterial activity against Pseudomonas aeruginosa HER1018; type: functional
[13] = system: Staphylococcus aureus; assay: Antibacterial activity against Staphylococcus aureus ATCC 43300; type: functional
[14] = Ratio of drug level in CD-1 mouse lungs to plasma at 25 mg/kg, po administered as single dose measured after 5 hrs by LC-MS/MS analysis; type: ADME, organism-based; details: lung/plasma

Compound | CC50 [1] | MIC [2] | other results
O=C(Nc1ccc(Cl)cc1)c1ccc([N+](=O)[O-])o1 | 1.5 µM | 0.78 µM | 
CC(C)(NC(=O)c1ccc([N+](=O)[O-])o1)c1ccc(F)cc1 | 42 µM | 0.78 µM | 
CC(C)(NC(=O)c1ccc([N+](=O)[O-])o1)c1ccc(COc2ccccc2C(F)(F)F)cc1 | 14 µM | 0.31 µM | 
O=C(NCc1ccc(Cl)cc1)c1ccc([N+](=O)[O-])o1 |  | 0.098 µM | 
CC(C)(NC(=O)c1ccc([N+](=O)[O-])o1)c1ccc(C(F)(F)F)cc1 | > 150 µM | 0.78 µM | 
CC(C)(NC(=O)c1ccc([N+](=O)[O-])o1)c1ccc(OC(F)(F)F)cc1 | 70 µM | 0.2 µM | 
O=C(NCc1ccc(COc2ccc(Cl)cc2)cc1)c1ccc([N+](=O)[O-])o1 |  | 0.039 µM | 
O=C(Nc1ccccc1)c1ccc([N+](=O)[O-])o1 | 6.7 µM | 3.1 µM | 
CC(C)(NC(=O)c1ccc([N+](=O)[O-])o1)c1ccc(-c2ccc(Cl)cc2)cc1 | > 140 µM | 25 µM | 
O=C(NCc1cccc(Cl)c1)c1ccc([N+](=O)[O-])o1 | 5.5 µM | 0.78 µM | 
O=C(NCc1ccc(Oc2ccc(Cl)cc2)cc1)c1ccc([N+](=O)[O-])o1 |  | 0.062 µM | 
CC(C)(NC(=O)c1ccc([N+](=O)[O-])o1)c1ccc(COc2ccccc2OC(F)(F)F)cc1 | 13 µM | 0.098 µM | 
CN(C)c1ccc(C(C)(C)NC(=O)c2ccc([N+](=O)[O-])o2)cc1 | 79 µM | 0.2 µM | 
O=C(NCCCc1ccc(Cl)cc1)c1ccc([N+](=O)[O-])o1 | 19 µM | 0.39 µM | 
O=C(NC1(c2ccccc2)CC1)c1ccc([N+](=O)[O-])o1 | 46 µM | 6.2 µM | 
CC(C)(NC(=O)c1ccc([N+](=O)[O-])o1)c1ccccc1 |  | 0.78 µM | t1/2 [3]: 74.5 min; Kinetic_solubility [4]: 388 µM; Cmax ([5]; CD-1, mouse, read-out: Cmax): 1620 nM; AUC [6]: 717 ng·h/mL; Intrinsic clearance [7]: 9.3 µL/min
O=C(NCCc1ccccc1)c1ccc([N+](=O)[O-])o1 | 12 µM | 3.1 µM | 
O=C(NCc1ccccc1Cl)c1ccc([N+](=O)[O-])o1 | 11 µM | 6.2 µM | 
CC(C)(NC(=O)c1ccc([N+](=O)[O-])o1)c1ccc(C#N)cc1 | 83 µM | > 10 µM | 
CO[C@H]1/C=C/O[C@@]2(C)Oc3c(C)c(O)c4c(O)c(c(/C=N/N5CCN(C)CC5)c(O)c4c3C2=O)NC(=O)/C(C)=C\C=C\[C@H](C)[C@H](O)[C@@H](C)[C@@H](O)[C@@H](C)[C@H](OC(C)=O)[C@@H]1C [RIFAMPIN] |  | 0.0125 to 0.05 µg/mL | 
CC(C)(NC(=O)c1ccc([N+](=O)[O-])o1)c1ccc(COc2ccc(C(F)(F)F)cc2)cc1 | 7 µM | 0.39 µM | 
O=C(NCc1ccc(-c2ccc(Cl)cc2)cc1)c1ccc([N+](=O)[O-])o1 | 4.4 µM | 0.12 µM | 

Compound | CC50 [1] | MIC [2] | other results
O=C(NCc1ccccc1)c1ccc([N+](=O)[O-])o1 | 13 µM | 0.39 µM | MIC [8]: > 200 µM; MIC [9]: > 200 µM; MIC [10]: > 200 µM; MIC [11]: > 200 µM; MIC [12]: > 200 µM; MIC [13]: > 200 µM; t1/2 [3]: 28.5 min; solubility kinetic [4]: > 500 µM; Cmax ([5]; CD-1, mouse, read-out: Cmax): 1160 nM; AUC [6]: 547 ng·h/mL; Intrinsic clearance [7]: 24.3 µL/min
COc1ccccc1OCc1ccc(C(C)(C)NC(=O)c2ccc([N+](=O)[O-])o2)cc1 |  | 0.019 µM | MIC [8]: > 120 µM; MIC [9]: > 120 µM; MIC [10]: > 120 µM; MIC [11]: > 120 µM; MIC [12]: > 120 µM; MIC [13]: > 120 µM; t1/2 [3]: 11.6 min; Kinetic_solubility [4]: 0.182 µM; Cmax ([5]; CD-1, mouse, read-out: Cmax): 210 nM; AUC [6]: 210 ng·h/mL; Kp at 5 h [14]: 0.04 to 0.09; Intrinsic clearance [7]: 59.8 µL/min
CC(C)(C)C(NC(=O)c1ccc([N+](=O)[O-])o1)c1ccccc1 (stereo unspecified) | 10 µM | 25 µM | 
CC(C)(NC(=O)c1ccc([N+](=O)[O-])o1)c1ccc(COc2ccc(Cl)cc2)cc1 |  | 0.12 µM | Cmax ([5]; CD-1, mouse, read-out: Cmax): 22 nM; AUC [6]: 34 ng·h/mL
O=C(NCCc1ccc(Cl)cc1)c1ccc([N+](=O)[O-])o1 | 5.4 µM | 0.39 µM | 
O=C(NC(=O)c1ccc([N+](=O)[O-])o1)c1ccccc1 | 3 µM | 25 µM | 
O=C(Nc1cc2ccccc2s1)c1ccc([N+](=O)[O-])o1 | 38 µM | 0.078 µM | t1/2 [3]: 1.87 min; Kinetic_solubility [4]: 5.61 µM; Intrinsic clearance [7]: 371 µL/min
CC(C)(NC(=O)c1ccc([N+](=O)[O-])o1)c1ccc(CN2CCOCC2)cc1 | 130 µM | > 10 µM | 
O=C(NC(c1ccccc1)C1CC1)c1ccc([N+](=O)[O-])o1 (stereo unspecified) | 22 µM | 12 µM | 
CC(C)(NC(=O)c1ccc([N+](=O)[O-])o1)c1ccc(Oc2ccc(Cl)cc2)cc1 | 67 µM | 0.39 µM | 
O=C(Nc1ccc2ccccc2c1)c1ccc([N+](=O)[O-])o1 | > 150 µM | 0.0078 µM | t1/2 [3]: 2.13 min; Kinetic_solubility [4]: 1.5 µM; Intrinsic clearance [7]: 325 µL/min
O=C(Nc1cc2ccccc2o1)c1ccc([N+](=O)[O-])o1 | 40 µM | 0.2 µM | 
CC(C)(C)c1ccc(C(C)(C)NC(=O)c2ccc([N+](=O)[O-])o2)cc1 | > 150 µM | 0.39 µM | 
O=C(NCc1ccc(CN2CCOCC2)cc1)c1ccc([N+](=O)[O-])o1 | 18 µM | 1.2 µM | 
COc1ccc(OCc2ccc(C(C)(C)NC(=O)c3ccc([N+](=O)[O-])o3)cc2)cc1 | > 120 µM | 0.078 µM | MIC [8]: > 120 µM; MIC [9]: > 120 µM; MIC [10]: > 120 µM; MIC [11]: > 120 µM; MIC [12]: > 120 µM; MIC [13]: > 120 µM; t1/2 [3]: 45 min; solubility kinetic [4]: < 0.06 µM; Cmax ([5]; mouse): 5 ng/mL; AUC [6]: 11 ng·h/mL; Intrinsic clearance [7]: 15.4 µL/min
CC(C)(NC(=O)c1ccc([N+](=O)[O-])o1)c1ccc(Cl)cc1 |  | 0.15 µM | 
CC(C)C(NC(=O)c1ccc([N+](=O)[O-])o1)c1ccccc1 (stereo unspecified) | 22 µM | 6.2 µM | 
CC(C)(NC(=O)c1ccc([N+](=O)[O-])o1)c1ccc(COc2ccccc2Cl)cc1 | 30 µM | 0.31 µM | 
O=C(NCCCc1ccccc1)c1ccc([N+](=O)[O-])o1 | 11 µM | 0.78 µM | 
CC(NC(=O)c1ccc([N+](=O)[O-])o1)c1ccccc1 (stereo unspecified) | 24 µM | 6.2 µM | 
CC(C)(NC(=O)c1ccc([N+](=O)[O-])o1)c1ccc(COc2ccc(OC(F)(F)F)cc2)cc1 | 6.7 µM | 0.39 µM | 
COc1ccc(C(C)(C)NC(=O)c2ccc([N+](=O)[O-])o2)cc1 |  | 0.078 µM | 
